Experimental data taken from patent US20090176718A1, “Berry Preparations For Treatment Of Diabetes And Metabolic Syndrome” (priority 2007, published 2009).
Marks after values point to notes of the source that are not given here.

How the values were obtained:
[1] = tested on: male C57bl/6J mice fed very high-fat diet (diet induced diabetes); experiment: Blood glucose levels in food restricted high-fat-diet (diabetic) C57BL/6J mice after gavage, vehicle 66% LABRASOL; format: in vivo, mouse; details: for Hypoglycemic activity (in words): 300 mg/kg; for % decrease from 0 h / Blood glucose, 6 hours: 6 hours
Text: The C57B6 mouse strain becomes diabetic when maintained on a high fat diet, it therefore serves as a model for Type 2 diabetes. A screen for treatments effective against diet induced diabetes utilizes male C57BL/6J mice (4-5 week old, 19-20 g) fed a high-fat diet (60% fat in kcal) for 10-16 weeks. This diet induces obesity and diabetes in this mouse strain. Extracts that induce a 20-40% decline in the blood glucose level are used for further testing.
Five-week-old male C57bl/6J mice were purchased from Jackson Labs (Maine) and were acclimatized for 1 week before being randomly assigned into the experimental groups. The animals were housed four to a cage with free access to water in a room with a 12:12 hour light-dark cycle (7:00 AM-7:00 PM), a temperature of 24±1° C., and the animals were weighed weekly. During the acclimatization period, each animal was fed a regular diet ad libitum. At 6-weeks old, the mice were randomly divided into two groups: low fat or very high fat fed groups. The mice continued to receive either a low fat diet (LFD) or very high-fat diet (VHFD) for a 12-week period. The high-fat diet food was purchased from Research Diets Inc., and the nutrition content of very high-fat diet food was similar to that of the low fat diet food except that carbohydrates were lower (70 kcal % vs. 20 kcal %) and the addition of more lard (10 kcal % vs. 60 kcal %) in the diet. Body weights were measured weekly, and at every other week blood was collected for blood glucose analysis. […] Animals fed with LFD were also fasted for 4 hours. […] As a positive control, metformin (Fortamet®, Gluocphase®, Glumetza®, Romet®) was administered instead of plant extract at a dose of 300 mg/kg (MET300). […] Without being limited by theory, metformin may act by increasing insulin sensitivity via increasing the utilization of glucose. The experimental protocols were approved by Rutgers University Institutional Care and Use Committee and followed federal, and state laws.
All treatments were provided by gavage with a vehicle of 66% LABRASOL®, a lipid-based self-emulsifying excipient. Abbreviations for Table 1 are as follows: FC=crude extract, F2=anthocyanin enriched extract, FT=treated extract to promote chalcone formation, metformin is a drug used as a positive control. The results were as follows:
All treatments were provided by gavage with a vehicle of 66% LABRASOL®. Abbreviations for Table 2 are as follows: FC=crude extract, F2=anthocyanin-enriched extract, FT=treated extract to promote chalcone formation, metformin is a drug used as a positive control; *:p<0.05; **:p<0.01; ***:p<0.001 vs 0 hours; c:p<0.05; cc:p<0.01; ccc:p<0.001 vs LABRASOL®. The results were as follows:
All treatments were provided by gavage with a vehicle of 66% LABRASOL®. Abbreviations for Table 3 are as follows: FT=treated extract to promote chalcone formation, F2=anthocyanin enriched extract, MBCE=maqui berry crude extract, MBA=maqui berry anthocyanin-rich extract, metformin is a drug used as a positive control; *:p<0.05; **:p<0.01; ***:p<0.001 vs. 0 hours; c:p<0.05; cc:p<0.01; ccc:p<0.001 vs. LABRASOL®.
The hypoglycemic effects of delphinidin-3-glucoside (Dp 3-glc) and malvidin-3-glucoside (Mv-3-glc) relative to blueberry anthocyanin-enriched extracts and metformin in insulin resistant C57bl/6J mice were investigated. Malvidin glycosides are the predominant anthocyanins of the lowbush blueberry extracts. Delphinidin-3-glucoside likely is a major component of the blueberry extracts. It is reported to be the active hypoglycemic compound from the leaves of Vaccinium species. The animals were maintained on a high fat diet and food restricted 4 hours prior to treatment by gavage. The extracts and metformin were formulated with 66% Labrasol as the delivery vehicle

[2] = tested on: food restricted C57B6 mice; experiment: Blood glucose levels in food restricted C57B6 mice using water as the gavage vehicle; format: in vivo, mouse; details: Table 5, 300 mg/kg gavage
Protocol: Five-week-old male C57bl/6J mice were purchased from Jackson Labs (Maine) and were acclimatized for 1 week before being randomly assigned into the experimental groups. The animals were housed four to a cage with free access to water in a room with a 12:12 hour light-dark cycle (7:00 AM-7:00 PM), a temperature of 24±1° C., and the animals were weighed weekly. During the acclimatization period, each animal was fed a regular diet ad libitum. At 6-weeks old, the mice were randomly divided into two groups: low fat or very high fat fed groups. The mice continued to receive either a low fat diet (LFD) or very high-fat diet (VHFD) for a 12-week period. The high-fat diet food was purchased from Research Diets Inc., and the nutrition content of very high-fat diet food was similar to that of the low fat diet food except that carbohydrates were lower (70 kcal % vs. 20 kcal %) and the addition of more lard (10 kcal % vs. 60 kcal %) in the diet. Body weights were measured weekly, and at every other week blood was collected for blood glucose analysis. Animals fed with VHFD were fasted for 4 hours and fed orally (gavage) with plant extracts (500 mg/kg) or […] to test efficacy of plant extracts. Animals fed with LFD were also fasted for 4 hours. Blood glucose readings are made 0 hours, 3 hours, and 6 hours after treatment (animals were fasted during the testing period). As a positive control, metformin (Fortamet®, Gluocphase®, Glumetza®, Romet®) was administered instead of plant extract at a dose of 300 mg/kg (MET300). […] Without being limited by theory, metformin may act by increasing insulin sensitivity via increasing the utilization of glucose. The experimental protocols were approved by Rutgers University Institutional Care and Use Committee and followed federal, and state laws.
The MBA was active at both 500 mg/kg and 250 mg/kg. Therefore, the use of Labrasol as a bioenhancing agent dose was not necessary with the MBA. A robust response was seen when Labrasol was not included in the dosing vehicle.

[3] = Example 3, 300 mg/kg by gavage with Labrasol, insulin resistant C57bl/6J mice
[4] = Table 4, insulin resistant C57bl/6J mice, 300 mg/kg gavage in 66% Labrasol
[5] = Table 2, 300 mg/kg gavage in 66% LABRASOL
[6] = Table 3, 250 mg/kg gavage in 66% LABRASOL

OC[C@H]1O[C@@H](Oc2cc3c(O)cc(O)cc3[o+]c2-c2cc(O)c(O)c(O)c2)[C@H](O)[C@@H](O)[C@@H]1O [Dp 3-glc, delphinidin-3-glucoside]
Hypoglycemic activity (in words) [1, 3]: did not significantly show hypoglycemic activity | Hypoglycemic activity (in words) ([1]; Example 3, 300 mg/kg by gavage with Labrasol, insulin resistant C57bl/6J mice, listed as delphinidin-3-O-glucoside): did not have significant hypoglycemic activity | Blood glucose, 0 hours [1, 4]: 214 ± 7.4 | % decrease from 0 h [1, 4]: −17 ± 5.7% | Blood glucose, 6 hours [1, 4]: 186.6 ± 15.5

CN(C)C(=N)N=C(N)N [Metformin, metformin]
Blood glucose, 0 hours ([2]; 0 hours): 189 ± 11.1 | % decrease from 0 hours ([2]; 6 hours): −43.4 ± 7.8% | Blood glucose, 6 hours ([2]; 6 hours): 106.8 ± 14.2 | Blood glucose, 0 hours ([1]; Table 1, 300 mg/kg gavage in 66% LABRASOL): 226 ± 18 | Blood glucose, 2 hours ([1]; Table 1, 300 mg/kg gavage in 66% LABRASOL, 2 hours): 183 ± 25 | Blood glucose, 4 hours ([1]; Table 1, 300 mg/kg gavage in 66% LABRASOL, 4 hours): 165 ± 29 | % decrease from 0 hours ([1]; Table 1, 300 mg/kg gavage in 66% LABRASOL, last time point 4 hours): −27% | Blood glucose, 0 hours [1, 5]: 207 ± 18 | Blood glucose, 3 hours [1, 5]: 211 ± 15 | Blood glucose, 5 hours ([1]; Table 2, 300 mg/kg gavage in 66% LABRASOL, 5 hours): 128 ± 17**^cc | % decrease from 0 hours ([1]; Table 2, 300 mg/kg gavage in 66% LABRASOL, last time point 5 hours): −38% | Blood glucose, 0 hours [1, 6]: 249 ± 29 | Blood glucose, 3 hours [1, 6]: 273 ± 32 | Blood glucose, 6 hours [1, 6]: 214 ± 39 | % decrease from 0 hours ([1]; Table 3, 250 mg/kg gavage in 66% LABRASOL, last time point 6 hours): −14% | Blood glucose, 0 hours [1, 4]: 206.7 ± 11 | % decrease from 0 h [1, 4]: −49 ± 4.5% | Blood glucose, 6 hours [1, 4]: 108 ± 8.9

COc1cc(-c2[o+]c3cc(O)cc(O)c3cc2O[C@@H]2O[C@H](CO)[C@@H](O)[C@H](O)[C@H]2O)cc(OC)c1O [Mv-3-glc, malvidin-3-glucoside]
Lowered blood glucose levels by ([1]; Example 3, 300 mg/kg by gavage with Labrasol): 34% | Hypoglycemic activity (in words) [1, 3]: comparable to the hypoglycemic activity of the phenolics-rich extract at a dose of 500 mg/kg | Hypoglycemic activity (in words) ([1]; Example 3, 300 mg/kg by gavage with Labrasol, insulin resistant C57bl/6J mice, listed as malvidin glucoside): comparable to the metformin positive control at 300 mg/kg | Blood glucose, 0 hours [1, 4]: 204 ± 20.8 | % decrease from 0 h [1, 4]: −31 ± 6.3% | Blood glucose, 6 hours [1, 4]: 134.4 ± 8.3
